The results in this text go back to patent publication US20240066027A1 (DOMAIN THERAPEUTICS, priority 2020, published 2024).

A value given as a limit tells only on which side of the number the result lay.

In this assay the target is T1, human PAR-2 (hPAR-2) receptor expressed in HEK-293 T cells in an endogenous manner (Homo sapiens, UniProt P55085).
T1 construct: human PAR-2 (hPAR-2) receptor expressed in HEK-293 T cells in an endogenous manner; endogenous in cells; host or cells: HEK-293 T cells
T1 sequence (P55085 26-397): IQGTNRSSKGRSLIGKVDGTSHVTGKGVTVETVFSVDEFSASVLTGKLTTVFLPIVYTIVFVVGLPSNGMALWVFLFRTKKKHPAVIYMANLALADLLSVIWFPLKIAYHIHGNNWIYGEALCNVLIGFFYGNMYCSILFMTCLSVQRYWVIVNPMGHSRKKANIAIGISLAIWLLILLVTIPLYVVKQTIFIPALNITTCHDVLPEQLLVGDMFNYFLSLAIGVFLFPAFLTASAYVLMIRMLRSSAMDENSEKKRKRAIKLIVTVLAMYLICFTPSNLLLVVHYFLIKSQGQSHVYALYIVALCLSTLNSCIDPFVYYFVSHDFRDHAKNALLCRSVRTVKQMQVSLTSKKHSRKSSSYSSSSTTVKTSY
Kind of assay: In vitro human PAR-2 functional antagonist activity using calcium assays (Fluo4AM, FLIPR Tetra). As to conditions: HEK-293 T cells stimulated by an EC80 of the 2-Furoyl-LIGRLO-NH2 peptide after 10 min incubation with compound; 20 concentrations, duplicate, two independent experiments. The class given is cell-based. The method in brief:
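Fluo4AM-loaded HEK-293 T cells were exposed to compound for 10 min to read agonist effect. They were then stimulated with an EC80 of 2-Furoyl-LIGRLO-NH2 and intracellular calcium was recorded for 5 more min on FLIPR. Antagonism was scored against buffer basal and EC80 agonist-alone signals.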

As usually defined, the IC50 is the concentration at which inhibition is half-maximal. As for `Cc1cc(N2CCN(C(=O)c3ccc4c(-c5ccc(Cl)c(F)c5)cn(CC(C)C)c4n3)C(C)(C)C2)nc(C)c1C(=O)O` [Example 95, 6-(4-(3-(4-chloro-3-fluorophenyl)-1-isobutyl-1H-pyrrolo[2,3-b]pyridine-6-carbonyl)-3,3-dimethylpiperazin-1-yl)-2,4-dimethylnicotinic acid], the IC50 was under 20 nM.
`Cc1cc(N2CCN(C(=O)c3ccc4c(-c5ccc(Cl)c(F)c5)cn(Cc5ncccn5)c4n3)C(C)(C)C2)nc(C)c1C(=O)O` [Example 158, 6-(4-(3-(4-chloro-3-fluorophenyl)-1-(pyrimidin-2-ylmethyl)-1H-pyrrolo[2,3-b]pyridine-6-carbonyl)-3,3-dimethylpiperazin-1-yl)-2,4-dimethylnicotinic acid]: the IC50 lay within 20 to 10000 nM.
The result for `CC(C)(C)n1cc(-c2ccc(Cl)c(F)c2)c2ccc(C(=O)N3[C@@H]4CC[C@H]3COC4)nc21` [Example 19, ((1R,5S)-3-oxa-8-azabicyclo[3.2.1]octan-8-yl)(1-(tertbutyl)-3-(4-chloro-3-fluorophenyl)-1H-pyrrolo[2,3-b]pyridin-6-yl)methanone] reads 20 to 10000 nM; that for `CC1(C)CN(C(=O)c2ccc(C(=O)O)cn2)CCN1C(=O)c1ccc2c(-c3ccc(Cl)c(F)c3)cn(C(C)(C)C)c2n1` [Example 169, 6-(4-(1-(tert-butyl)-3-(4-chloro-3-fluorophenyl)-1H-pyrrolo[2,3-b]pyridine-6-carbonyl)-3,3-dimethylpiperazine-1-carbonyl)nicotinic acid], 20 to 10000 nM.
Regarding `CC(=O)c1cn(-c2ccc(Cl)c(F)c2)c2ccc(C(=O)N3CCC(CC(=O)O)CC3)cc12` [Example 206, 2-(1-(3-acetyl-1-(4-chloro-3-fluorophenyl)-1H-indole-5-carbonyl)piperidin-4-yl)acetic acid], the IC50 was over 10000 nM.
With `Cc1cc(N2CCN(C(=O)c3ccc4c(-c5ccc(Cl)c(F)c5)cn(C(C)(C)C)c4n3)[C@@H](C)C2)nc(C)c1C(=O)O` [Example 179, (S)-6-(4-(1-(tert-butyl)-3-(4-chloro-3-fluorophenyl)-1H-pyrrolo[2,3-b]pyridine-6-carbonyl)-3-methylpiperazin-1-yl)-2,4-dimethyinicotinic acid], the IC50 lay within 20 to 10000 nM.
For `CC1(C)C(=O)NCCN1C(=O)c1ccc2c(-c3ccc(Cl)c(F)c3)cn(C3CCOCC3)c2n1` [Example 30, 4-(3-(4-chloro-3-fluorophenyl)-1-(tetrahydro-2H-pyran-4-yl)-1H-pyrrolo[2,3-b]pyridine-6-carbonyl)-3,3-dimethylpiperazin-2-one], the IC50 fell in the range of 20 to 10000 nM.
Take `Cc1cc(N2CCN(C(=O)c3cc(C)c4c(-c5ccc(Cl)c(F)c5)cn(CC(C)C)c4n3)C(C)(C)C2)nc(C)c1C(=O)O` [Example 188, 6-(4-(3-(4-chloro-3-fluorophenyl)-1-isobutyl-4-methyl-1H-pyrrolo[2,3-b]pyridine-6-carbonyl)-3,3-dimethylpiperazin-1-yl)-2,4-dimethyinicotinic acid]: the IC50 lay within 20 to 10000 nM.
With `Cc1cc(N2CCN(C(=O)c3cnc4c(-c5ccc(Cl)c(F)c5)cn(CC(C)C)c4n3)C(C)(C)C2)nc(C)c1C(=O)O` [Example 190, 6-(4-(7-(4-chloro-3-fluorophenyl)-5-isobutyl-5H-pyrrolo[2,3-b]pyrazine-3-carbonyl)-3,3-dimethylpiperazin-1-yl)-2,4-dimethylnicotinic acid], the IC50 is under 20 nM.
In the case of `CN(C)C(=O)CC1CCN(C(=O)c2ccc3c(-c4ccc(Cl)c(F)c4)cn(C(C)(C)C)c3n2)CC1` [Example 164, 2-(1-(1-(tert-butyl)-3-(4-chloro-3-fluorophenyl)-1H-pyrrolo[2,3-b]pyridine-6-carbonyl)piperidin-4-yl)-N,N-dimethylacetamide], the IC50 lay within 20 to 10000 nM.
As to `CC(C)(C)c1nn(-c2ccc(Cl)c(F)c2)c2ccc(C(=O)N3CCNC(=O)C3(C)C)nc12` [Example 75], the IC50 fell in the range of 20 to 10000 nM.
For `Cc1cc(NC2CCN(C(=O)c3ccc4c(-c5ccc(Cl)c(F)c5)cn(C(C)(C)C)c4n3)CC2C)nc(C)c1C(=O)O` (stereo not drawn) [Example 198, 6-((1-(1-(tert-butyl)-3-(4-chloro-3-fluorophenyl)-1H-pyrrolo[2,3-b]pyridine-6-carbonyl)-3-methylpiperidin-4-yl)amino)-2,4-dimethylnicotinic acid], the IC50 lay within 20 to 10000 nM.
The result for `CC(C)(C)n1cc(-c2ccc(Cl)c(F)c2)c2ccc(C(=O)N3CCN(c4cn[nH]c(=O)c4)CC3)nc21` [Example 208, 5-(4-(1-(tert-butyl)-3-(4-chloro-3-fluorophenyl)-1H-pyrrolo[2,3-b]pyridine-6-carbonyl)piperazin-1-yl)pyridazin-3(2H)-one] reads over 10000 nM; that for `Cc1nc(Cn2cc(-c3ccc(Cl)c(F)c3)c3ccc(C(=O)N4CCN(c5cc(C)c(C(=O)O)c(C)n5)CC4(C)C)nc32)c(C)o1` [Example 159, 6-(4-(3-(4-chloro-3-fluorophenyl)-1-((2,5-dimethyloxazol-4-yl)methyl)-1H-pyrrolo[2,3-b]pyridine-6-carbonyl)-3,3-dimethylpiperazin-1-yl)-2,4-dimethylnicotinic acid], 20 to 10000 nM.
For `CN1CCN(C(=O)c2ccc3c(-c4ccc(Cl)c(F)c4)cn(C(C)(C)C)c3n2)C(C)(C)C1=O` [Example 2, 4-(1-(tert-butyl)-3-(4-chloro-3-fluorophenyl)-1H-pyrrolo[2,3-b]pyridine-6-carbonyl)-1,3,3-trimethylpiperazin-2-one], the IC50 was under 20 nM.
For the molecule `CC1(C)C(=O)NCCN1C(=O)c1ccc2c(n1)c(C1CCOCC1)nn2-c1ccc(Cl)c(F)c1` [Example 72, 4-(1-(4-chloro-3-fluorophenyl)-3-(tetrahydro-2H-pyran-4-yl)-1H-pyrazolo[4,3-b]pyridine-5-carbonyl)-3,3-dimethylpiperazin-2-one], the IC50 lay in the range of 20 to 10000 nM.
The result for `COC1CC(n2cc(-c3ccc(Cl)c(F)c3)c3ccc(C(=O)N4CCNC(=O)C4(C)C)nc32)C1` (stereo not drawn) [Example 28, 4-(3-(4-chloro-3-fluorophenyl)-1-(3-methoxycyclobutyl)-1H-pyrrolo[2,3-b]pyridine-6-carbonyl)-3,3-dimethylpiperazin-2-one] reads under 20 nM; that for `CC(C)Cc1nn(-c2ccc(Cl)c(F)c2)c2ccc(C(=O)N3CCN(C)C(=O)C3)nc12` [Example 63, 4-(1-(4-chloro-3-fluorophenyl)-3-isobutyl-1H-pyrazolo[4,3-b]pyridine-5-carbonyl)-1-methylpiperazin-2-one], over 10000 nM.
`CNC(=O)CN1CCN(C(=O)c2ccc3c(-c4ccc(Cl)c(F)c4)cn(C(C)(C)C)c3n2)C(C)(C)C1=O` [Example 6, 2-(4-(1-(tert-butyl)-3-(4-chloro-3-fluorophenyl)-1H-pyrrolo[2,3-b]pyridine-6-carbonyl)-3,3-dimethyl-2-oxopiperazin-1-yl)-N-methylacetamide]: the IC50 was under 20 nM.
Consider `Cc1cc(N2CCN(C(=O)c3ccc4c(-c5ccc(Cl)c(F)c5)cn(Cc5ccncc5)c4n3)C(C)(C)C2)nc(C)c1C(=O)O` [Example 149, 6-(4-(3-(4-chloro-3-fluorophenyl)-1-(pyridin-4-ylmethyl)-1H-pyrrolo[2,3-b]pyridine-6-carbonyl)-3,3-dimethylpiperazin-1-yl)-2,4-dimethylnicotinic acid], for which the IC50 lay in the range of 20 to 10000 nM.
As for `Cc1cc(N2CCN(C(=O)c3ccc4c(-c5ccc(Cl)c(F)c5)cn(Cc5ncco5)c4n3)C(C)(C)C2)nc(C)c1C(=O)O` [Example 173], the IC50 is 20 to 10000 nM.
